Results from article PMC11822212, “High-throughput screening identifies Aurora kinase B as a critical therapeutic target for Merkel cell carcinoma” (Nature Communications, 2025).

Assays:
[1] = system: six MCC cell lines and four control cell lines; experiment: qHTS cell viability, all 10 cell lines screened; type: cell-based
MKL-2 cells (VP-MCC) = experiment: qHTS cell viability (CellTiter-Glo, 72 h; primary and follow-up small molecule screen); type: cell-based, human
CRL-7250 cells = experiment: qHTS cell viability (CellTiter-Glo, 72 h; primary screen), control cell line; type: cell-based
WAGA cells (VP-MCC) = experiment: qHTS cell viability (CellTiter-Glo, 72 h; primary and follow-up small molecule screen); type: cell-based, human
MCC13 cells (VN-MCC) = experiment: as above; type: cell-based, human
MKL-1 cells (VP-MCC) = experiment: as above; type: cell-based, human
HACAT cells = experiment: qHTS cell viability (CellTiter-Glo, 72 h; primary screen), control cell line; type: cell-based, human
MCC26 cells (VN-MCC) = experiment: qHTS cell viability (CellTiter-Glo, 72 h; primary and follow-up small molecule screen); type: cell-based, human
NIH-3T3 cells = experiment: qHTS cell viability (CellTiter-Glo, 72 h; primary screen), control cell line; type: cell-based, mouse
HEK293T cells = experiment: as above; type: cell-based, human
[2] = system: VN-MCC cell lines (MCC13, MCC26, UISO); experiment: qHTS cell viability, VN-MCC cell lines as a group (mean AUC, VN.MCC.avg); type: cell-based, human; conditions: for VN-MCC_Avg_AUC: mean AUC of VN-MCC cell lines
[3] = system: VP-MCC cell lines (WAGA, MKL-1, MKL-2); experiment: qHTS cell viability, VP-MCC cell lines as a group (mean AUC, VP.MCC.avg); type: cell-based, human; conditions: for VP-MCC_Avg_AUC: mean AUC of VP-MCC cell lines
[4] = system: control cell lines (HACAT, HEK293T, CRL-7250, NIH-3T3); experiment: qHTS cell viability, control cell lines as a group (mean AUC, Control.avg); type: cell-based; conditions: mean AUC of control cell lines
[5] = system: MCC cell lines (WAGA, MKL-1, MKL-2, MCC13, MCC26, UISO); experiment: qHTS cell viability, all six MCC cell lines as a group (mean AUC, MCC.avg); type: cell-based, human
UISO cells (VN-MCC) = experiment: qHTS cell viability (CellTiter-Glo, 72 h; primary and follow-up small molecule screen); type: cell-based, human
[6] = MIPE library, 11-point DRC, sheet S2D
[7] = MIPE library, 11-point DRC, sheet S2E
[8] = MIPE library, 11-point DRC, control cell line, sheet S2D
[9] = MIPE library, 11-point DRC, control cell line, sheet S2E
[10] = NPC library, therapeutic window: Control avg AUC minus MCC avg AUC
[11] = NPC library, qHTS dose-response AUC, MKL2
[12] = NPC library, qHTS dose-response AUC, CRL7250 control
[13] = NPC library, qHTS dose-response AUC, WAGA
[14] = NPC library, qHTS dose-response AUC, MCC13
[15] = NPC library, qHTS dose-response AUC, MKL1
[16] = NPC library, qHTS dose-response AUC, HACAT control
[17] = NPC library, qHTS dose-response AUC, NIH3T3 control
[18] = NPC library, therapeutic window: Control avg AUC minus VN-MCC avg AUC
[19] = NPC library, therapeutic window: Control avg AUC minus VP-MCC avg AUC
[20] = NPC library, mean AUC of six MCC cell lines
[21] = NPC library, qHTS dose-response AUC, UISO

SMILES: C=Cc1c(C)c2cc3nc(cc4[nH]c(cc5nc(cc1[nH]2)C(C)=C5CCC(=O)O)c(CCC(=O)OC)c4C)[C@@]1(C)C3=CC=C(C(=O)OC)[C@H]1C(=O)OC [Verteporfin]
- Control-MCC ([1]; MIPE library, Control AUC minus MCC AUC (therapeutic window), sheet S2D): 151.157
- Control-MCC ([1]; MIPE library, Control AUC minus MCC AUC (therapeutic window), sheet S2E): 151.157
- MKL2_AUC (MKL-2 cells (VP-MCC); [6]): 217.219
- MKL2_AUC (MKL-2 cells (VP-MCC); [7]): 217.219
- CRL7250_AUC (CRL-7250 cells; [8]): 465.081
- CRL7250_AUC (CRL-7250 cells; [9]): 465.081
- WAGA_AUC (WAGA cells (VP-MCC); [6]): 266.998
- WAGA_AUC (WAGA cells (VP-MCC); [7]): 266.998
- MCC13_AUC (MCC13 cells (VN-MCC); [6]): 440.785
- MCC13_AUC (MCC13 cells (VN-MCC); [7]): 440.785
- MKL1_AUC (MKL-1 cells (VP-MCC); [6]): 279.212
- MKL1_AUC (MKL-1 cells (VP-MCC); [7]): 279.212
- HACAT_AUC (HACAT cells; [8]): 478.04
- HACAT_AUC (HACAT cells; [9]): 478.04
- MCC26_AUC (MCC26 cells (VN-MCC); [6]): 397.153
- MCC26_AUC (MCC26 cells (VN-MCC); [7]): 397.153
- NIH3T3_AUC (NIH-3T3 cells; [8]): 474.512
- NIH3T3_AUC (NIH-3T3 cells; [9]): 474.512
- HEK293T_AUC (HEK293T cells; [8]): 435.497
- HEK293T_AUC (HEK293T cells; [9]): 435.497
- Control-VN-MCC ([2]; MIPE library, Control AUC minus VN-MCC AUC (therapeutic window), sheet S2D): 93.5089
- Control-VN-MCC ([2]; MIPE library, Control AUC minus VN-MCC AUC (therapeutic window), sheet S2E): 93.5089
- VN-MCC_Avg_AUC ([2]; MIPE library, sheet S2D): 369.774
- VN-MCC_Avg_AUC ([2]; MIPE library, sheet S2E): 369.774
- Control-VP-MCC ([3]; MIPE library, Control AUC minus VP-MCC AUC (therapeutic window), sheet S2D): 208.806
- Control-VP-MCC ([3]; MIPE library, Control AUC minus VP-MCC AUC (therapeutic window), sheet S2E): 208.806
- VP-MCC_Avg_AUC ([3]; MIPE library, sheet S2D): 254.477
- VP-MCC_Avg_AUC ([3]; MIPE library, sheet S2E): 254.477
- Control_Avg_AUC ([4]; MIPE library, sheet S2D): 463.283
- Control_Avg_AUC ([4]; MIPE library, sheet S2E): 463.283
- MCC_Avg_AUC ([5]; MIPE library, mean AUC of six MCC cell lines, sheet S2D): 312.125
- MCC_Avg_AUC ([5]; MIPE library, mean AUC of six MCC cell lines, sheet S2E): 312.125
- UISO_AUC (UISO cells (VN-MCC); [6]): 271.383
- UISO_AUC (UISO cells (VN-MCC); [7]): 271.383

SMILES: O=C(N/N=C/c1ccccc1O)c1ccncc1 [Salinazid]
- Control-MCC [1, 10]: 71.983
- MKL2_AUC (MKL-2 cells (VP-MCC); [11]): 340.216
- CRL7250_AUC (CRL-7250 cells; [12]): 476.052
- WAGA_AUC (WAGA cells (VP-MCC); [13]): 408.656
- MCC13_AUC (MCC13 cells (VN-MCC); [14]): 439.405
- MKL1_AUC (MKL-1 cells (VP-MCC); [15]): 355.467
- HACAT_AUC (HACAT cells; [16]): 455.974
- MCC26_AUC (MCC26 cells (VN-MCC); NPC library, qHTS dose-response AUC, MCC26): 445.789
- NIH3T3_AUC (NIH-3T3 cells; [17]): 449.726
- HEK293T_AUC (HEK293T cells; NPC library, qHTS dose-response AUC, HEK293T control): 458.621
- Control-VN-MCC ([2]; Control AUC minus VN-MCC AUC): 51.9858
- VN-MCC_Avg_AUC ([2]; NPC library): 408.107
- Control-VN-MCC [2, 18]: 51.9858
- Control-VP-MCC ([3]; Control AUC minus VP-MCC AUC): 91.9801
- VP-MCC_Avg_AUC ([3]; NPC library): 368.113
- Control-VP-MCC [3, 19]: 91.9801
- Control_Avg_AUC ([4]; NPC library): 460.093
- MCC_Avg_AUC ([5]; NPC library, mean AUC of all 6 MCC cell lines): 388.11
- MCC_Avg_AUC [5, 20]: 388.11
- UISO_AUC (UISO cells (VN-MCC); [21]): 339.128

SMILES: Cc1nc2ccccn2c(=O)c1CCN1CCC(C(=O)c2ccc(F)cc2)CC1 [Pirenperone]
- Control-MCC [1, 10]: 47.4309
- MKL2_AUC (MKL-2 cells (VP-MCC); [11]): 400.974
- MKL2_AUC (MKL-2 cells (VP-MCC); area under the dose-response curve, MKL-2 cells, AUC<450 = reduced viability): 400.974
- CRL7250_AUC (CRL-7250 cells; [12]): 480.924
- CRL7250_AUC (CRL-7250 cells; area under the dose-response curve, CRL7250 control cells, AUC<450 = reduced viability): 480.924
- WAGA_AUC (WAGA cells (VP-MCC); [13]): 415.843
- WAGA_AUC (WAGA cells (VP-MCC); area under the dose-response curve, WAGA cells, AUC<450 = reduced viability): 415.843
- MCC13_AUC (MCC13 cells (VN-MCC); [14]): 440.287
- MCC13_AUC (MCC13 cells (VN-MCC); area under the dose-response curve, MCC13 cells, AUC<450 = reduced viability): 440.287
- MKL1_AUC (MKL-1 cells (VP-MCC); [15]): 418.427
- MKL1_AUC (MKL-1 cells (VP-MCC); {}): 418.427
- HACAT_AUC (HACAT cells; [16]): 457.02
- HACAT_AUC (HACAT cells; area under the dose-response curve, HACAT control cells, AUC<450 = reduced viability): 457.02
- MCC26_AUC (MCC26 cells (VN-MCC); NPC library; qHTS dose-response AUC, MCC26): 401.594
- MCC26_AUC (MCC26 cells (VN-MCC); area under the dose-response curve, MCC26 cells; AUC<450 = reduced viability): 401.594
- NIH3T3_AUC (NIH-3T3 cells; [17]): 477.551
- NIH3T3_AUC (NIH-3T3 cells; area under the dose-response curve, NIH3T3 control cells, AUC<450 = reduced viability): 477.551
- HEK293T_AUC (HEK293T cells; NPC library; qHTS dose-response AUC, HEK293T control): 450.239
- HEK293T_AUC (HEK293T cells; area under the dose-response curve, HEK293T control cells; AUC<450 = reduced viability): 450.239
- VN-MCC_Avg_AUC ([2]; NPC library): 426.258
- Control-VN-MCC [2, 18]: 40.1758
- VP-MCC_Avg_AUC ([3]; NPC library): 411.748
- Control-VP-MCC [3, 19]: 54.686
- Control_Avg_AUC ([4]; NPC library): 466.434
- MCC_Avg_AUC [5, 20]: 419.003
- UISO_AUC (UISO cells (VN-MCC); [21]): 436.893
- UISO_AUC (UISO cells (VN-MCC); area under the dose-response curve, UISO cells, AUC<450 = reduced viability): 436.893
